Source: PMC4301037, “Identification and Structure–Function Analysis of Subfamily Selective G Protein-Coupled Receptor Kinase Inhibitors” (ACS Chemical Biology, 2014)
Where two headings read alike, the source gives them in different places.

How the values were obtained:
[1] = molecular target: T1, GRK5 (Bos taurus, UniProt P43249); test: DSF retest (confirmation), GRK5; type: binding, bovine; conditions: for GRK5 Tm: 0.2 mg mL^–1 kinase; for GRK5 ΔTm: relative to intrinsic melting point of the kinase
T1 construct: when using full-length kinases as the receptor[37] instead of isolated kinase domains; made in house
T1 sequence (P43249 whole entry, the tested form may be a part): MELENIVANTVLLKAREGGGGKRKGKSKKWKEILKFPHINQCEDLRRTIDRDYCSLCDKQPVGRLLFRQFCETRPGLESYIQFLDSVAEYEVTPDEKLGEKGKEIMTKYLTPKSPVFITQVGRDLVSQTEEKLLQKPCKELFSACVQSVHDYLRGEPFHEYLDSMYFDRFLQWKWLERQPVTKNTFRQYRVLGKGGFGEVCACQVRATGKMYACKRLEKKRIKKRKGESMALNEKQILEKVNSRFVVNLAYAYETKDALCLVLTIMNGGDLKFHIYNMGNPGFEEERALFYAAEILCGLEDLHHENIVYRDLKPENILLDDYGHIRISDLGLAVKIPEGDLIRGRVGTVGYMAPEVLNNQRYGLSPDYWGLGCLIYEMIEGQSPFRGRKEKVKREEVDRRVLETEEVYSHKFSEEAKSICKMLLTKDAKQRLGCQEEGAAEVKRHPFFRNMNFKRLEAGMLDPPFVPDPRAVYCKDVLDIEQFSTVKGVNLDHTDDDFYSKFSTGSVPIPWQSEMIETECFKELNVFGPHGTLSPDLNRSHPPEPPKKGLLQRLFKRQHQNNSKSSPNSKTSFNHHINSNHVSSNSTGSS

[2] = test system: GRK1, 2, and 5 and PKA; test: Ssel selectivity score calculated from inhibition of GRK1, 2, 5 and PKA; conditions: selectivity score from inhibition of GRK1, 2, 5 and PKA; <0.5 selective
[3] = molecular target: T2, GRK1 (Bos taurus, UniProt P28327); test: DSF retest (confirmation), GRK1; type: binding, bovine; conditions: for GRK1 Tm: 0.2 mg mL^–1 kinase; for GRK1 ΔTm: relative to intrinsic melting point of the kinase
T2 construct: Bovine GRK1_1–535, bovine and human GRK2S670A; made in house
T2 sequence (P28327 1-535): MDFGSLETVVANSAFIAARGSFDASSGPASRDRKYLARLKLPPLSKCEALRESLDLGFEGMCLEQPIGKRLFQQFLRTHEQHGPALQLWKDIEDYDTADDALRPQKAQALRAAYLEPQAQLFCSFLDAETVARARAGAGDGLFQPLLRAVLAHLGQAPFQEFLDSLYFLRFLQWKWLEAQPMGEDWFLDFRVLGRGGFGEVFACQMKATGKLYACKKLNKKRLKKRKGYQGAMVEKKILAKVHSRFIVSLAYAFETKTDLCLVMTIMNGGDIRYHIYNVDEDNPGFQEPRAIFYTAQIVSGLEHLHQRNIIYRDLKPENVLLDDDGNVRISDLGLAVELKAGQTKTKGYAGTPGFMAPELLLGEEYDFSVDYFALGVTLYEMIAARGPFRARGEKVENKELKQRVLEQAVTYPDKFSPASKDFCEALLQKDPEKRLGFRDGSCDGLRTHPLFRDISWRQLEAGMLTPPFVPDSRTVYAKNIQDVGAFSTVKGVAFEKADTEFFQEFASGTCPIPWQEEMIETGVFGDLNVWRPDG

[4] = molecular target: T3, protein kinase A (PKA) (Mus musculus, UniProt P05132); test: DSF retest (confirmation), PKA; type: binding; conditions: for PKA Tm: 0.2 mg mL^–1 kinase; for PKA ΔTm: relative to intrinsic melting point of the kinase
T3 construct: His tag (inferred from pET15b vector and Ni-NTA column) (N); host or cells: E. coli Rosetta(DE3)pLysS
How it was run: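 Thermal shift (ΔTm) measured by DSF with 0.2 mg mL^–1 PKA and 100 μM 1-anilinonaphthalene-8-sulfonic acid dye. Buffer: 20 mM HEPES pH 7.0, 5 mM MgCl2, 2 mM DTT, 1 mM CHAPS.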

[5] = molecular target: T1, GRK5; test: In vitro phosphorylation assay (tubulin, 5 μM ATP), GRK5; type: biochemical, bovine; conditions: for IC50: read-out: GRK5 log IC50 (converted)
[6] = molecular target: T4, bovine GRK5 (Bos taurus, UniProt P43249); test: Primary DSF inhibitor screen, GRK5; type: binding; conditions: 10 μM compound, 2 μM kinase, relative to DMSO control; read-out: ΔTm, primary screen, GRK5
T4 construct: when using full-length kinases as the receptor[37] instead of isolated kinase domains; made in house
T4 sequence (P43249 whole entry, the tested form may be a part): as the sequence (P43249 whole entry, the tested form may be a part) above

[7] = molecular target: T5, PKA (Mus musculus, UniProt P05132); test: PKA inhibition assay (ADP-Glo, CREBtide, 100 μM ATP); type: biochemical
T5 construct: His tag (inferred from pET15b vector and Ni-NTA column) (N); host or cells: E. coli Rosetta(DE3)pLysS

[8] = molecular target: T6, GRK2 (Homo sapiens, UniProt P25098, S670A); test: DSF retest (confirmation), GRK2; type: binding; conditions: for GRK2 Tm: 0.2 mg mL^–1 kinase; for GRK2 ΔTm: relative to intrinsic melting point of the kinase
T6 construct: made in house
T6 sequence (P25098 1-689 S670A): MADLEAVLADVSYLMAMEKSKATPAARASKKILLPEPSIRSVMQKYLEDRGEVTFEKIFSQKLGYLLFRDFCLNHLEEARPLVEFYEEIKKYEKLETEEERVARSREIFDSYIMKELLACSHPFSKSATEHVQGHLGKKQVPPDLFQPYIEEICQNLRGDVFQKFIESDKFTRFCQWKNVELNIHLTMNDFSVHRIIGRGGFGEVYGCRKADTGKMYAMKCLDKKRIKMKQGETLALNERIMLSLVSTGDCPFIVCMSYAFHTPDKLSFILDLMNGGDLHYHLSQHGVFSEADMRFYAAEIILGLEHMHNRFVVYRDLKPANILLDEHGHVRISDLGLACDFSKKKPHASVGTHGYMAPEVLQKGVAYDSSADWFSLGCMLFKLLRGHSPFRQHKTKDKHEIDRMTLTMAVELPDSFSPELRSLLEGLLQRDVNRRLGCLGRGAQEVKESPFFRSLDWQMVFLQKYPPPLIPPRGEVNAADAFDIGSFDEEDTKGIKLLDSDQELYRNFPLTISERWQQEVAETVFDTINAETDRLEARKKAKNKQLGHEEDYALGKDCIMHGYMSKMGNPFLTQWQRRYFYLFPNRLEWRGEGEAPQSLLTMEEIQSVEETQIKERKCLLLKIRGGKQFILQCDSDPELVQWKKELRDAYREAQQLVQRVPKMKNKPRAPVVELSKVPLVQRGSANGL

[9] = molecular target: T7, GRK2 (Bos taurus, UniProt P21146, S670A); test: In vitro phosphorylation assay (tubulin, 5 μM ATP), GRK2; type: biochemical, bovine; conditions: for IC50: read-out: GRK2 log IC50 (converted)
T7 construct: made in house
T7 sequence (P21146 1-689 S670A): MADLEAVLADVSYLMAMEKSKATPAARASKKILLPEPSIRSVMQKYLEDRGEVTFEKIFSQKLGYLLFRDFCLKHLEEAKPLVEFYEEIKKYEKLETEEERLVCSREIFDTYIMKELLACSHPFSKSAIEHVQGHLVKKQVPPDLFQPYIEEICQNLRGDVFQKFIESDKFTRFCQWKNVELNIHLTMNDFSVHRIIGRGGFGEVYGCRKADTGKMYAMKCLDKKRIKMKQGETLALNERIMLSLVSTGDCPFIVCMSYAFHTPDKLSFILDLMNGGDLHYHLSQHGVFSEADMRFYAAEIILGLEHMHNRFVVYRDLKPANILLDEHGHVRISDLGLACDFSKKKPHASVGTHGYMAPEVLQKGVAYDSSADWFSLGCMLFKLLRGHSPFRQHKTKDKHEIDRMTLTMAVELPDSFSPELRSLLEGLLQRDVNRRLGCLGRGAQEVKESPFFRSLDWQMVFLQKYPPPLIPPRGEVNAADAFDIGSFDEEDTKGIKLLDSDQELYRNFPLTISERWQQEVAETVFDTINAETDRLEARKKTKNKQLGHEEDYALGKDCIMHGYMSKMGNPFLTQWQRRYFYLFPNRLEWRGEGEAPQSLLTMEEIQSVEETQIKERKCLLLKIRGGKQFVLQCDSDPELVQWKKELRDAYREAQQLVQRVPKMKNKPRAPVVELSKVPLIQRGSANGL

[10] = test system: ROCK1; conditions: relative to GSK180736A (substitution effect); cited from earlier work
[11] = molecular target: T8, human GRK2S670A (Homo sapiens, UniProt P25098, S670A); test: Primary DSF (differential scanning fluorimetry) inhibitor screen, GRK2; type: binding; conditions: 10 μM compound; for ΔTm, primary screen, GRK2 / ΔTm at 10 µM: 2 μM kinase, relative to DMSO control; for ΔTm at 10 µM: read-out: ΔTm, primary screen, GRK2; for rank in the primary screen, GRK2: rank ordering of compounds in primary DSF screen
T8 construct: when using full-length kinases as the receptor[37] instead of isolated kinase domains; made in house
T8 sequence (P25098 1-689 S670A): T6 sequence (P25098 1-689 S670A)

[12] = molecular target: T2, GRK1; test: In vitro phosphorylation assay (tubulin, 5 μM ATP), GRK1; type: biochemical, bovine; conditions: for IC50: read-out: GRK1 log IC50 (converted)
[13] = test system: 224 kinases; parameters: method as in ChEMBL database; conditions: ref ChEMBL database; cited from earlier work
[14] = logarithm of IC50 (−3.3 corresponds to 0.5 mM, footnote c), 438 nM PKA, 100 μM ATP, CREBtide, read-out: PKA log IC50 (converted)

Row | SMILES | GRK5 Tm [1] | GRK5 ΔTm [1] | Ssel [2] | GRK1 Tm [3] | GRK1 ΔTm [3] | PKA Tm [4] | PKA ΔTm [4] | GRK5 fold (increase in potency relative to paroxetine) [5] | ΔTm at 10 µM [6] | IC50 [7, 14] | GRK2 Tm [8] | GRK2 ΔTm [8] | GRK2 fold (increase in potency relative to paroxetine) [9] | increase in potency of ROCK inhibition [10] | ΔTm, primary screen, GRK2 [11] | ΔTm at 10 µM [11] | rank in the primary screen, GRK2 [11] | GRK1 fold (increase in potency relative to paroxetine) [12] | IC50 [5] | IC50 [9] | also measured
1 | CC1=C(C(=O)Nc2ccc3[nH]ncc3c2)C(c2ccc3ccccc3c2)CC(=O)N1 (stereo not shown) [GSK270822A] | 29.4 °C | 2.6 °C | 0.883 | 24.6 °C | 4.7 °C | 51.9 °C | 6.5 °C | 2.0 fold | 3.92 °C | 50.1 µM | 47.8 °C | 10.3 °C | 0.10 fold | 5 fold | 3.8 °C | 3.82 °C | 5 | 1 fold |  |  | IC50 ([7]; read-out: IC50 against PKA): < 100 µM
2 | CC1=C(C(=O)Nc2ccc3[nH]ncc3c2)C(c2ccc(F)cc2)NC(c2ccc(C(F)(F)F)nc2)=N1 (stereo not shown) [GSK317354A] | 27.3 °C | 0.6 °C | 0.109 | 23.2 °C | 3.3 °C | 45.9 °C | 0.5 °C | 0.20 fold | 2.29 °C | 200 µM | 49.0 °C | 11.4 °C | 0.50 fold | 10 fold |  | 3.78 °C | 6 |  | 631 µM | 2510 nM | less potent than GSK180736A against GRK2 ([9]; relative to GSK180736A): about 1 log; IC50 [12]: > 1000 µM
3 | CCn1c(-c2nonc2N)nc2c(C#CC(C)(C)O)nc(O[C@@H](CN)c3ccccc3)cc21 [GSK1007102B] | 28.7 °C | 2.0 °C | 0.917 | 26.7 °C | 6.8 °C | 52.2 °C | 6.8 °C | 40 fold | 3.43 °C | 0.501 µM | 49.3 °C | 11.8 °C | 1.3 fold |  | 5.4 °C | 5.41 °C | 1 | 6 fold | 3.16 µM | 1000 nM | IC50 against PKA, in words [7]: nanomolar; inhibition pattern in kinase cross-screening, in words [13]: strong inhibition of many of the 221 kinases evaluated; IC50 [12]: 63.1 µM
